Measured values as given in patent publication US5091539A, “Azolyl cycloalkanol derivatives and agricultural fungicides” (Shionogi & Co., Ltd., priority 1984, dated 1992).

Legend:
Type in all cases: in vivo
Sphaerotheca fuliginea = assay: Control test to powdery mildew of cucumber (foliar and soil treatment); conditions: for Protective Index, Foliar Treatment / Protective Index, Soil Treatment: 14 days; for Foliar Treatment, Curative Effect / Foliar Treatment, Protective Effect / Soil Treatment, Protective Effect: index 0-10
Experimental: (1) Seeds of cucumber (Cultivar: Matsukaze) were sown in a pot of 9 cm in diameter and the pots were kept in a green house until the plant was grown for 2-3 leaf stage. The first leaf was sprayed with, (i) 3 ml each of solutions containing the test compound at the prescribed concetrations and dried by the air (foliar treatment). Inoculation of spore suspension of Sphaerotheca fuliginea by spraying was practised 2 days before the treatment (curative effect) or 1 day after the treatment (protective effect). Alternatively, (ii) 5 ml of the solution was applied at the root of the seedlings (soil treatment). The pots were kept in a greenhouse for 2 days and inoculation was practised in the same manner noted above. (iii) After sprayed with 3 ml of a solution of the test compound at a concentration of 125 ppm and dried by the air, the treated pots were set in a greenhouse. Untreated pots were placed next to the treated pots. Those treated and untreated plants were inoculated with spore suspension. Protective effect of the test compounds by vapor was thus checked. The effect was examined 14 days after the inoculation of the spores.
0: Disease sign is observed on the whole leaf.
3: Disease sign is observed on the leaf in about 50%.
5: Disease sign is observed on the leaf in about 30%.
7: Disease sign is observed on the leaf in about 20%.
9: a little disease sign is observed.
(§1) (1) Test methods and evaluation are the same as those in Tests 2, 4 and 6.

Botrytis cinerea = assay: Control test of Botrytis rot (gray mold) of cucumber
Experimental: (1) Seedlings of cucumber (Cultivar: Matsukaze) were planted in a pot of 9 cm in diameter. The first leaf was sprayed with 3 ml each of solutions containing the test compound at the concentration of 125 or 31.3 ppm and the plant was dried by the air. After inoculation of the spores of Botrytis cinerea, the plants were kept at 20°±2° C. and 90-100% humidity ((i) protective spraying). Alternatively, the spores were inoculated at first and when the leaves suffered a little (about 2 days after), the solutions of the test compounds were sprayed ((ii) curative spraying). Evaluation was practised 3 days after the inoculation. Percent disease control was calculated by the ratio of diameter of diseased area in treated and untreated plants.
as §1

Sclerotinia sclerotiorum = assay: Control test to Sclerotinia rot of cucumber
Text: (1) This test was practised in the same manner as in the above test, control test of Botrytis rot (gray mold) of cucumber, except for using the mycelium of Sclerotinia sclerotiorum as inoculm. The same as in test 2.

Row | Compound | Foliar Treatment, Curative Effect (Sphaerotheca fuliginea; second Table 4, 0.5 ppm) | Foliar Treatment, Protective Effect (Sphaerotheca fuliginea; second Table 4, 0.5 ppm) | Foliar Treatment, Curative Effect (Sphaerotheca fuliginea; second Table 4, 2.0 ppm) | Foliar Treatment, Protective Effect (Sphaerotheca fuliginea; second Table 4, 2.0 ppm) | Foliar Treatment, Curative Effect (Sphaerotheca fuliginea; second Table 4, 7.8 ppm) | Foliar Treatment, Protective Effect (Sphaerotheca fuliginea; second Table 4, 7.8 ppm) | Foliar Treatment, Curative Effect (Sphaerotheca fuliginea; second Table 4, 31.3 ppm) | Foliar Treatment, Protective Effect (Sphaerotheca fuliginea; second Table 4, 31.3 ppm) | further results
1 | O[C@@]1(Cc2ccc(Cl)cc2Cl)CCCC[C@H]1n1cncn1 (relative stereo) [Compound 3, cis-1-(2,4-dichlorobenzyl)-2-(1,2,4-triazol-1-yl)cyclohexanol] |  |  |  |  |  |  |  |  | Protective Index, Foliar Treatment (Sphaerotheca fuliginea; first Table 4, 125 ppm): 10; Protective Index, Soil Treatment (Sphaerotheca fuliginea; first Table 4, 125 ppm): 10
2 | O[C@@]1(Cc2ccc(Cl)cc2)CCCCC[C@H]1n1cncn1 (relative stereo) [Compound 5, cis-1-(4-chlorobenzyl)-2-(1,2,4-triazol-1-yl)cycloheptanol] |  |  |  |  |  |  |  |  | Protective Index, Foliar Treatment (Sphaerotheca fuliginea; first Table 4, 125 ppm): 10; Protective Index, Soil Treatment (Sphaerotheca fuliginea; first Table 4, 125 ppm): 3 (Disease sign is observed on the leaf in about 50%.)
3 | O[C@@]1(c2cccs2)CCCC[C@H]1n1ccnc1 (relative stereo) [Compound 6, cis-1-(2-thienyl)-2-imidazolylcyclohexanol] |  |  |  |  |  |  |  |  | Protective Index, Foliar Treatment (Sphaerotheca fuliginea; first Table 4, 125 ppm): 10; Protective Index, Soil Treatment (Sphaerotheca fuliginea; first Table 4, 125 ppm): 0
4 | O[C@@]1(c2ccc(F)cc2)CCCCC[C@H]1n1ccnc1 (relative stereo) [Compound 23] | 0 | 0 | 3 (Disease sign is observed on the leaf in about 50%.) | 5 (Disease sign is observed on the leaf in about 30%.) | 10 | 10 | 10 | 10 | 
5 | O[C@@]1(c2ccc(Cl)cc2)CCCC[C@H]1n1ccnc1 (relative stereo) [Compound 26] | 0 | 0 | 7 (Disease sign is observed on the leaf in about 20%.) | 3 (Disease sign is observed on the leaf in about 50%.) | 9 | 9 | 10 | 10 | 
6 | O[C@@]1(c2ccc(Cl)cc2)CCCCC[C@H]1n1ccnc1 (relative stereo) [Compound 27] | 0 | 0 | 5 (Disease sign is observed on the leaf in about 30%.) | 3 (Disease sign is observed on the leaf in about 50%.) | 10 | 9 | 10 | 10 | 
7 | O[C@@]1(c2ccc(F)cc2)CCCC[C@H]1n1ccnc1 (relative stereo) [Compound 29] | 0 | 0 | 3 (Disease sign is observed on the leaf in about 50%.) | 3 (Disease sign is observed on the leaf in about 50%.) | 9 | 9 | 10 | 10 | 
8 | O[C@@]1(c2cccc(Cl)c2)CCCC[C@H]1n1cncn1 (relative stereo) [Compound 31] | 3 (Disease sign is observed on the leaf in about 50%.) | 0 | 9 | 0 | 10 | 9 | 10 | 10 | 
9 | O[C@@]1(c2ccc(Cl)c(Cl)c2)CCCC[C@H]1n1cncn1 (relative stereo) [Compound 33] | 3 (Disease sign is observed on the leaf in about 50%.) | 0 | 10 | 5 (Disease sign is observed on the leaf in about 30%.) | 10 | 10 | 10 | 10 | Soil Treatment, Protective Effect (Sphaerotheca fuliginea; second Table 4, 0.5 ppm): 0; Soil Treatment, Protective Effect (Sphaerotheca fuliginea; second Table 4, 2.0 ppm): 0; Soil Treatment, Protective Effect (Sphaerotheca fuliginea; second Table 4, 7.8 ppm): 0; Soil Treatment, Protective Effect (Sphaerotheca fuliginea; second Table 4, 31.3 ppm): 0
10 | O[C@@]1(c2ccc(Cl)c(Cl)c2)CCCCC[C@H]1n1cncn1 (relative stereo) [Compound 34] | 5 (Disease sign is observed on the leaf in about 30%.) | 0 | 10 | 0 | 10 | 9 | 10 | 10 | Soil Treatment, Protective Effect (Sphaerotheca fuliginea; second Table 4, 0.5 ppm): 0; Soil Treatment, Protective Effect (Sphaerotheca fuliginea; second Table 4, 2.0 ppm): 0; Soil Treatment, Protective Effect (Sphaerotheca fuliginea; second Table 4, 7.8 ppm): 0; Soil Treatment, Protective Effect (Sphaerotheca fuliginea; second Table 4, 31.3 ppm): 0
11 | O[C@@]1(c2cc(Cl)ccc2Cl)CCCC[C@H]1n1cncn1 (relative stereo) [Compound 35] | 10 | 5 (Disease sign is observed on the leaf in about 30%.) | 10 | 10 | 10 | 10 | 10 | 10 | Soil Treatment, Protective Effect (Sphaerotheca fuliginea; second Table 4, 0.5 ppm): 0; Soil Treatment, Protective Effect (Sphaerotheca fuliginea; second Table 4, 2.0 ppm): 0; Soil Treatment, Protective Effect (Sphaerotheca fuliginea; second Table 4, 7.8 ppm): 9; Soil Treatment, Protective Effect (Sphaerotheca fuliginea; second Table 4, 31.3 ppm): 10
12 | Cc1ccc2nc3sc(=O)sc3nc2c1 [Chinomethionat, reference compound] |  |  |  |  |  |  |  |  | Protective Index, Foliar Treatment (Sphaerotheca fuliginea; first Table 4, 125 ppm): 10
13 | CCCCc1c(C)nc(N(C)C)nc1O [Dimethirimol, reference compound] |  |  |  |  |  |  |  |  | Protective Index, Soil Treatment (Sphaerotheca fuliginea; first Table 4, 500 ppm): 5 (Disease sign is observed on the leaf in about 30%.)
14 | CC(C)NC(=O)N1CC(=O)N(c2cc(Cl)cc(Cl)c2)C1=O [Iprodione, reference compound] |  |  |  |  |  |  |  |  | Percent Disease Control, Curative Spraying (Botrytis cinerea; Table 2, 31.3 ppm): 64%; Percent Disease Control, Protective Spraying (Botrytis cinerea; Table 2, 31.3 ppm): 100%; Percent Disease Control, Curative Spraying (Botrytis cinerea; Table 2, 125 ppm): 90%; Percent Disease Control, Protective Spraying (Botrytis cinerea; Table 2, 125 ppm): 100%; Percent Disease Control, Curative Spraying (Sclerotinia sclerotiorum; 31.3 ppm): 77%; Percent Disease Control, Protective Spraying (Sclerotinia sclerotiorum; 31.3 ppm): 100%; Percent Disease Control, Curative Spraying (Sclerotinia sclerotiorum; 125 ppm): 90%; Percent Disease Control, Protective Spraying (Sclerotinia sclerotiorum; 125 ppm): 100%
